Laboratory results reported in PubChem BioAssay AID2060489 (Molecular Pharmacology Branch, DTP, NCI, 2025).
pIC50: −log10 of the molar value.

System: 922993-354-T-J3-PDC complex spheroids, viability
Assay: Anticancer human tumor 922993-354-T-J3-PDC patient-derived endometrial carcinoma cell line growth inhibition [GQUAD]
Settings: for pIC50: curve of first compound; for viability, T/C: stronger effect = lower value
Excerpt: DNA G-quadruplex Stabilizer Agents in Combinations in Complex Spheroids
A high-throughput screen of multi-cell type tumor spheroids was designed to identify active combinations of DNA G-quadruplex stabilizer agents and targeted small molecules. Complex spheroids include a stromal component modeled by human endothelial cells (HUVEC) and fibroblasts modeled by human mesenchymal stem cells (MSCs). The concentration ranges selected for each drug and investigational agent were based upon clinically achievable concentrations if the clinical Cmax of the agent was known.
Compounds. The drugs and investigational agents: pidnarulex (CX-5461; NSC782164), APTO-253 (NSC789042), BRACO-19 (NSC847499), peposertib (NSC802822), ceralasertib (NSC780249), elimusertib (NSC800525), camonsertib (NSC841442), AZD-1390 (NSC803789), olaparib (NSC753686), talazoparib (NSC767125), ART-558 (NSC835418), sotorasib (NSC818433), MRTX-1133 (NSC836407), SN-38 (NSC673596), topotecan (NSC609699), etoposide (NSC141540), doxorubicin (NSC123127), gemcitabine (NSC613327), 5-fluorouracil (NSC19893), paclitaxel (NSC125973), vemurafenib (NSC761431), panobinostat (NSC761190), R-306465 (JNJ-16241199; NSC773264), adavosertib (NSC754352), TP-3654 (NSC805149), carboplatin (NSC241240), KSQ-4279 (NSC840948), and staurosporine (NSC755774) were obtained from the National Cancer Institute (NCI) Developmental Therapeutics Program Chemical Repository (34). The FDA-approved anticancer drug set is available from the NCI Developmental Therapeutics Program. […] The stock solutions were prepared in dimethyl sulfoxide (DMSO, Sigma-Aldrich, St. Louis, MO, cat. D2650) at 800-fold the tested concentration and stored at -70 degrees C prior to their use. All drugs and investigational agents were tested over a range starting from a high concentration at or near the clinical Cmax and decreasing in half-log increments. If the clinical Cmax for an agent had not been determined, the highest concentration tested was 10 microM.
2.3 Cell Culture. All cells were maintained in an incubator at 37 degrees C and 5% CO2 with 95% humidity. The PDC lines were cultured according to standard operating procedures established by the NCI PDMR. All PDCs were thawed and cultured in Matrigel-coated flasks prepared with a working solution of 1X Ham's F-12 nutrient mix, without supplementation (Invitrogen, cat. 11765054), 100 U/mL penicillin-streptomycin (Invitrogen, cat. 15140122), and 2.5% Matrigel (Corning Inc., cat. 354248) for the first three passages. The 857933-349-R-J2-PDC line was cultured in 6C/Colon 1B media, which includes advanced DMEM/F-12 (Thermo Fisher Scientific, cat. 12634028), 10 mM HEPES (Thermo Fisher Scientific, cat. 15630080), 1X GlutaMAX supplement (Thermo Fisher Scientific, cat. 35050061), 0.1 mg/mL primocin (InvivoGen, cat. ant-pm-2), 10% defined fetal bovine serum, heat inactivated (HyClone Laboratories Inc., cat. SH30070.03HI), 50% L-WRN conditioned media (ATCC, cat. CRL-3276), 1.25 mM N-Acetyl-L-cysteine (Sigma-Aldrich, cat. A9165), 10 mM nicotinamide (Sigma-Aldrich, cat. N0636), 1X B-27 supplement (Thermo Fisher Scientific, cat. 17504044), 1X N-2 supplement (Thermo Fisher Scientific, cat. 17502048), 10 microM Y-27632 dihydrochloride (Tocris Bioscience, cat. 1254), and 50 ng/mL human EGF recombinant protein (Thermo Fisher Scientific, cat. PHG0311). The 485176-168-R4-J1-PDC line was cultured in Panc media, which includes all 6C/Colon 1B media components plus 100 ng/mL human FGF-10 (Thermo Fisher Scientific, cat. 100-26), 500 nM SB-431542 (Selleckchem, cat. S1067), and gastrin (Tocris, cat. 3006).
[…]

[1] = second compound 0.0316 µM, first compound 0.0316 µM
[2] = second compound 0.0316 µM, first compound 0.1 µM
[3] = second compound 0.0316 µM, first compound 0.316 µM
[4] = second compound 0.0316 µM, first compound 1 µM
[5] = second compound 0.0316 µM, first compound 3.16 µM
[6] = second compound 0.0316 µM, first compound 10 µM
[7] = second compound 0.1 µM, first compound 0.0316 µM
[8] = second compound 0.1 µM, first compound 0.1 µM
[9] = second compound 0.1 µM, first compound 0.316 µM
[10] = second compound 0.1 µM, first compound 1 µM
[11] = second compound 0.1 µM, first compound 3.16 µM
[12] = second compound 0.1 µM, first compound 10 µM
[13] = second compound 0.316 µM, first compound 0.0316 µM
[14] = second compound 0.316 µM, first compound 0.1 µM
[15] = second compound 0.316 µM, first compound 0.316 µM
[16] = second compound 0.316 µM, first compound 1 µM
[17] = second compound 0.316 µM, first compound 3.16 µM
[18] = second compound 0.316 µM, first compound 10 µM
[19] = second compound 1 µM, first compound 0.0316 µM
[20] = second compound 1 µM, first compound 0.1 µM
[21] = second compound 1 µM, first compound 0.316 µM
[22] = second compound 1 µM, first compound 1 µM
[23] = second compound 1 µM, first compound 3.16 µM
[24] = second compound 1 µM, first compound 10 µM
[25] = second compound 3.16 µM, first compound 0.0316 µM
[26] = second compound 3.16 µM, first compound 0.1 µM
[27] = second compound 3.16 µM, first compound 0.316 µM
[28] = second compound 3.16 µM, first compound 1 µM
[29] = second compound 3.16 µM, first compound 3.16 µM
[30] = second compound 3.16 µM, first compound 10 µM
[31] = second compound 10 µM, first compound 0.0316 µM
[32] = second compound 10 µM, first compound 0.1 µM
[33] = second compound 10 µM, first compound 0.316 µM
[34] = second compound 10 µM, first compound 1 µM
[35] = second compound 10 µM, first compound 3.16 µM
[36] = second compound 10 µM, first compound 10 µM
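Also: spheroids exposed to compounds for seven days.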
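For viability, T/C in this document: 100% = DMSO vehicle control viability.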

CCCS(=O)(=O)Nc1ccc(F)c(C(=O)c2c[nH]c3ncc(-c4ccc(Cl)cc4)cc23)c1F + Cc1[nH]c2ccc(F)cc2c1-c1nc2c3cccnc3c3ncccc3c2[nH]1
pIC50 (second compound 0.0316 µM): < 5.00
pIC50 (second compound 0.1 µM): < 5.00
pIC50 (second compound 0.316 µM): < 5.00
pIC50 (second compound 1 µM): < 5.00
pIC50 (second compound 3.16 µM): < 5.00
pIC50 (second compound 10 µM): < 5.00
viability, T/C [1]: 113%
viability, T/C [2]: 101%
viability, T/C [3]: 78.5%
viability, T/C [4]: 69.4%
viability, T/C [5]: 77.3%
viability, T/C [6]: 68.4%
viability, T/C [7]: 119%
viability, T/C [8]: 99.2%
viability, T/C [9]: 75.7%
viability, T/C [10]: 81.2%
viability, T/C [11]: 76.9%
viability, T/C [12]: 57.1%
viability, T/C [13]: 101%
viability, T/C [14]: 82.4%
viability, T/C [15]: 81.5%
viability, T/C [16]: 77.2%
viability, T/C [17]: 78.2%
viability, T/C [18]: 56.2%
viability, T/C [19]: 93%
viability, T/C [20]: 83.5%
viability, T/C [21]: 61.9%
viability, T/C [22]: 92.9%
viability, T/C [23]: 82%
viability, T/C [24]: 56.7%
viability, T/C [25]: 91.2%
viability, T/C [26]: 98.6%
viability, T/C [27]: 82.5%
viability, T/C [28]: 87.5%
viability, T/C [29]: 76.4%
viability, T/C [30]: 60.9%
viability, T/C [31]: 96.9%
viability, T/C [32]: 99.7%
viability, T/C [33]: 85.4%
viability, T/C [34]: 81.4%
viability, T/C [35]: 76.9%
viability, T/C [36]: 64%

CC(C)n1c(=O)n(C)c2cnc3cc(F)c(-c4ccc(OCCCN5CCCCC5)nc4)cc3c21 + Cc1cnc(CNC(=O)c2c(=O)c3ccc(N4CCCN(C)CC4)nc3n3c2sc2ccccc23)cn1
pIC50 (second compound 0.0316 µM): < 5.00
pIC50 (second compound 0.1 µM): 6.59
pIC50 (second compound 0.316 µM): > 7.50
pIC50 (second compound 1 µM): 6.32
pIC50 (second compound 3.16 µM): > 7.50
pIC50 (second compound 10 µM): > 7.50
viability, T/C [1]: 87.1%
viability, T/C [2]: 75%
viability, T/C [3]: 59.3%
viability, T/C [4]: 59.8%
viability, T/C [5]: 52.9%
viability, T/C [6]: 52%
viability, T/C [7]: 53.6%
viability, T/C [8]: 54.5%
viability, T/C [9]: 44.9%
viability, T/C [10]: 45.4%
viability, T/C [11]: 52.9%
viability, T/C [12]: 41.6%
viability, T/C [13]: 52.2%
viability, T/C [14]: 41.4%
viability, T/C [15]: 46.9%
viability, T/C [16]: 40%
viability, T/C [17]: 59.2%
viability, T/C [18]: 46.6%
viability, T/C [19]: 44.1%
viability, T/C [20]: 53.9%
viability, T/C [21]: 54.4%
viability, T/C [22]: 49.5%
viability, T/C [23]: 45.6%
viability, T/C [24]: 38.6%
viability, T/C [25]: 45.4%
viability, T/C [26]: 45.6%
viability, T/C [27]: 49%
viability, T/C [28]: 48.6%
viability, T/C [29]: 58.8%
viability, T/C [30]: 44.6%
viability, T/C [31]: 41.9%
viability, T/C [32]: 43.6%
viability, T/C [33]: 36.6%
viability, T/C [34]: 42.1%
viability, T/C [35]: 37.9%
viability, T/C [36]: 28.3%

C=CCn1c(=O)c2cnc(Nc3ccc(N4CCN(C)CC4)cc3)nc2n1-c1cccc(C(C)(C)O)n1 + Cc1[nH]c2ccc(F)cc2c1-c1nc2c3cccnc3c3ncccc3c2[nH]1
pIC50 (second compound 0.0316 µM): 5.32
pIC50 (second compound 0.1 µM): 5.35
pIC50 (second compound 0.316 µM): 5.47
pIC50 (second compound 1 µM): 5.26
pIC50 (second compound 3.16 µM): 5.28
pIC50 (second compound 10 µM): 5.36
viability, T/C [1]: 119%
viability, T/C [2]: 107%
viability, T/C [3]: 119%
viability, T/C [4]: 101%
viability, T/C [5]: 70.6%
viability, T/C [6]: 16.6%
viability, T/C [7]: 127%
viability, T/C [8]: 81.2%
viability, T/C [9]: 108%
viability, T/C [10]: 91.7%
viability, T/C [11]: 64.6%
viability, T/C [12]: 16.4%
viability, T/C [13]: 97.5%
viability, T/C [14]: 122%
viability, T/C [15]: 128%
viability, T/C [16]: 116%
viability, T/C [17]: 52.1%
viability, T/C [18]: 14.7%
viability, T/C [19]: 91.9%
viability, T/C [20]: 102%
viability, T/C [21]: 101%
viability, T/C [22]: 91%
viability, T/C [23]: 80.4%
viability, T/C [24]: 17.9%
viability, T/C [25]: 114%
viability, T/C [26]: 81.5%
viability, T/C [27]: 124%
viability, T/C [28]: 107%
viability, T/C [29]: 75.4%
viability, T/C [30]: 17.4%
viability, T/C [31]: 105%
viability, T/C [32]: 97.9%
viability, T/C [33]: 104%
viability, T/C [34]: 98.2%
viability, T/C [35]: 63.6%
viability, T/C [36]: 15%
